Measurements as given in article PMC6990646 (ACS Omega, 2020).
In brackets after ≈: the same amount, converted by molar mass. Several values for one entry are separate records, joined by “and”; a condition that tells them apart may be missing. Equal values may be shown once.

Tests used:
HAV HM175 = experiment: Plaque reduction assay against HAV HM175; type: cell-based, hepatitis A virus HM 175; conditions: hepatitis A virus HM 175, plaque reduction
[1] = system: ED-43/SG-Feo (VYG) replicon of HCV genotype 4a; experiment: Antiviral bioassay against ED-43/SG-Feo; type: cell-based; conditions: for IC50: HCVcc genotype 4; for mean % of reduction, HCVcc genotype 4: nontoxic dose of compound
HAdV7 = experiment: Plaque reduction assay against adenovirus 7; type: cell-based, human adenovirus type 7; conditions: for mean % of reduction, adenovirus type 7: nontoxic dose of compound
Vero cell line = experiment: Cytotoxicity test on Vero cell line; type: cell-based; conditions: herpes simplex virus table; host cells Vero
FRHK-4 cell line = experiment: Cytotoxicity test on FRHK-4 cell line; type: cell-based; conditions: hepatitis A virus HM 175 columns; host cells FRHK4
Huh 7.5 cell line = experiment: Cytotoxicity test on Huh 7.5 cell line; type: cell-based; conditions: HCVcc genotype 4 columns; host cells Huh 7.5
HSV-1 = conditions: for IC50: herpes simplex virus, plaque reduction; for mean % of reduction, herpes simplex virus: nontoxic dose of compound
Hep2 cell line = experiment: Cytotoxicity test on Hep2 cell line; type: cell-based; conditions: adenovirus type 7 columns; host cells Hep-2
ADV7 = conditions: cited from earlier work

| Compound | IC50 (HAV HM175) | IC50 [1] | mean % of reduction, HCVcc genotype 4 [1] | mean % of reduction, adenovirus type 7 (HAdV7) | CC50 (Vero cell line) | CC50 (FRHK-4 cell line) | CC50 (Huh 7.5 cell line) | IC50 (HSV-1) | mean % of reduction, herpes simplex virus (HSV-1) | IC50 (HAdV7; adenovirus type 7, plaque reduction) | CC50 (Hep2 cell line) | EC50 (ADV7) |
| --- | --- | --- | --- | --- | --- | --- | --- | --- | --- | --- | --- | --- |
| O=C(CNc1nc(NS(=O)(=O)c2ccccc2)ncc1-c1nc2ccccc2s1)c1ccc(Cl)cc1 [9b, N-(5-(Benzo[d]thiazol-2-yl)-4-((2-(4-chlorophenyl)-2-oxoethyl)amino)pyrimidin-2-yl)benzenesulfonamide] | 86 µg/mL (≈ 160 µM) | 86 µg/mL (≈ 160 µM) | 60 ± 1.2% | 40 ± 0.8% | 240 µg/mL (≈ 448 µM) | 230 µg/mL (≈ 429 µM) | 250 µg/mL (≈ 466 µM) | 74 µg/mL (≈ 138 µM) | 70% and 70 ± 1.5% | – | – | – |
| Cc1ccc(S(=O)(=O)Nc2nc(N)c(-c3nc4ccccc4s3)c(-c3ccc(Cl)cc3)n2)cc1 [14h, N-(4-Amino-5-(benzo[d]thiazol-2-yl)-6-(4-chlorophenyl)pyrimidin-2-yl)-4-methylbenzenesulfonamide] | 74 µg/mL (≈ 146 µM) | – | 20 ± 0.5% | 40 ± 0.7% | 230 µg/mL (≈ 453 µM) | 200 µg/mL (≈ 394 µM) | – | 71 µg/mL (≈ 140 µM) | 70% and 70 ± 2.0% | – | – | – |
| O=C(CNc1nc(NS(=O)(=O)c2ccccc2)ncc1-c1nc2ccccc2s1)c1ccc(Br)cc1 [9a, N-(5-(Benzo[d]thiazol-2-yl)-4-((2-(4-bromophenyl)-2-oxoethyl)amino)pyrimidin-2-yl)benzenesulfonamide] | 78 µg/mL (≈ 134 µM) | 120 µg/mL (≈ 207 µM) | 50 ± 0.9% | 50 ± 0.9% | 270 µg/mL (≈ 465 µM) | 240 µg/mL (≈ 413 µM) | 250 µg/mL (≈ 431 µM) | 63 µg/mL (≈ 109 µM) | 90% and 90 ± 2.5% | 120 µg/mL (≈ 207 µM) | 260 µg/mL (≈ 448 µM) | – |
| Cc1ccc(S(=O)(=O)Nc2nc(N)c(-c3nc4ccccc4s3)c(-c3ccc(F)cc3)n2)cc1 [14g, N-(4-Amino-5-(benzo[d]thiazol-2-yl)-6-(4-fluorophenyl)pyrimidin-2-yl)-4-methylbenzenesulfonamide] | 81 µg/mL (≈ 165 µM) | – | 20 ± 0.7% | 40 ± 0.8% | 240 µg/mL (≈ 488 µM) | 230 µg/mL (≈ 468 µM) | – | 50 µg/mL (≈ 102 µM) | 80% and 80 ± 2.4% | – | – | – |
| NC(=O)c1ncn([C@@H]2O[C@H](CO)[C@@H](O)[C@H]2O)n1 [ribavirin] | – | – | – | – | – | – | – | – | – | – | – | 27.8 µg/mL (≈ 114 µM) |
